The values below come from patent US20050244891A1, “Ligand-containing micelles and uses thereof” (Applera Corporation, priority 2003, published 2005).

The star is where a group is joined. K(dye2) = lysine labeled with dye2 = 5-carboxy-2′,7′-dipyridyl-sulfonefluorescein; K(tet) = lysine labeled with tet = 2′,7′,4,7-tetrachloro-5-carboxy fluorescein; Heptadecanoyl = CCCCCCCCCCCCCCCCC(=O)*; Pentadecanoyl = CCCCCCCCCCCCCCC(=O)*; Palmitoyl = CCCCCCCCCCCCCCCC(=O)*; Tridecanoyl = CCCCCCCCCCCCC(=O)*; AEEA = NCCOCCOCC(=O)O

The conditions of data set [1]: cited from earlier work.
The subject of another data set is Akt. The experiment in a line: Fluorescence of micelle with signal molecule upon treatment with protein kinase (Table 19). It counts as biochemical. As to conditions: Conc 8 uM. An excerpt:
(§1) Table 19 also provides the specific protein kinase that can be used to modify each of these signal molecules, as well as the fluorescence observed with a micelle comprising the signal molecules upon treatment with the specified protein kinase.

Another data set concerns PKA. Described as above. It counts as biochemical. As to conditions: Conc 8 uM; for RFUs at 10 uL (final): after kinase; for RFUs at 10 uL (initial): before kinase.
From the text: as §1

The conditions of data set [2]: normalized: phenylalanine 100, glycine 0; cited from earlier work.
A further data set concerns PKC. The experiment in a line: Fluorescence of micelle with signal molecule upon treatment with protein kinase (Table 19). It counts as biochemical. As to conditions: for RFUs at 10 uL (final): after kinase; for RFUs at 10 uL (initial): before kinase.
From the text: as §1

The subject of a further data set is Src, lyn, fyn. Described as above. It counts as biochemical. As to conditions: Conc 8 uM.
From the text: as §1

A further data set has as its target MAPKAP2 (Homo sapiens, UniProt P49137). Described as above. As to conditions: Conc 8 uM. It counts as biochemical.
From the text: as §1

Another data set deals with MAPK. The data set is described as above. It counts as biochemical. As to conditions: Conc 16 uM.
From the text: as §1

MAPKAP2, sequence (P49137 whole entry): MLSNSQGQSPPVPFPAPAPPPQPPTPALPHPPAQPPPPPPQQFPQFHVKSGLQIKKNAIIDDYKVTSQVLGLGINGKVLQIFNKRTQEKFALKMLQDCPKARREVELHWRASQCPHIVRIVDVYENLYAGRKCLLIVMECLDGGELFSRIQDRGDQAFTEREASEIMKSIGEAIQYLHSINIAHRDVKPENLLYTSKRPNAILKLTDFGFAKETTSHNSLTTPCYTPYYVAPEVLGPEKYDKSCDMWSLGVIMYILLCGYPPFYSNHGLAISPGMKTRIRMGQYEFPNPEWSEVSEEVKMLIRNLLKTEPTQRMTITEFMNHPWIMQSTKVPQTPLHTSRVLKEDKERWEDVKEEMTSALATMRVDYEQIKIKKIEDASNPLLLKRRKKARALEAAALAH

Turning to `N[C@@H](CO)C(=O)O` [Serine (S), Serine], the “Side chain pKa” value in data set [1] is given as “˜13”.
In the data set with Akt, “C15-OOOK(dye2)RPRTSSF-NH2: peptide-dye signal molecule for Akt; dye2 = 5-carboxy-2′,7′-dipyridyl-sulfonefluorescein ({Pentadecanoyl-AEEA-AEEA-AEEA-K(dye2)}-RPRTSSF-NH2)” displayed a Fold increase of 4x. Also, in the data set with Akt (after kinase), the “RFUs at 10 uL (final)” value was 7500 RFU. Also, the “RFUs at 10 uL (initial)” value in the data set on Akt (before kinase) is 1500 RFU.
For the compound “C13-K(dye2)-LRRASLG-NH2: peptide-dye signal molecule for PKA; dye2 = 5-carboxy-2′,7′-dipyridyl-sulfonefluorescein, C-terminus amidated ({Tridecanoyl-K(dye2)}-LRRASLG-NH2)”, in the data set on PKA, the Fold increase is recorded as 5x, the “RFUs at 10 uL (final)” value was 5000 RFU and the “RFUs at 10 uL (initial)” value was 1000 RFU.
On to `O=C(O)[C@@H]1CCCN1` [Proline (P), Proline], for which the “Monera et al. Hydrophobicity (pH 2)” value in data set [2] was −46.
Consider “C16-OOOK(dye2)-RREGSFR-NH2: peptide-dye signal molecule for PKC; O = 2-aminoethoxy-2-ethoxyacetyl linker, dye2 = 5-carboxy-2′,7′-dipyridyl-sulfonefluorescein ({Palmitoyl-AEEA-AEEA-AEEA-K(dye2)}-RREGSFR-NH2)”, for which, in the data set with PKC (Conc 4 uM), the Fold increase came out at 4.5x, the “RFUs at 10 uL (final)” value came out at 3000 RFU and the “RFUs at 10 uL (initial)” value is 650 RFU.
On to “C17-OOOK(tet)-RQGSFRA-NH2: peptide-dye signal molecule for PKC; tet = 2′,7′,4,7-tetachloro-5-carboxy fluorescein ({Heptadecanoyl-AEEA-AEEA-AEEA-K(tet)}-RQGSFRA-NH2)”, for which, in the data set on PKC (Conc 6 uM), the Fold increase turned out to be 7x, the “RFUs at 10 uL (final)” value is given as 4900 RFU and the “RFUs at 10 uL (initial)” value is 700 RFU.
As for “C16-OOOK(dye2)RIGEGTYGVVRR-NH2: peptide-dye signal molecule for Src, lyn, fyn; dye2 = 5-carboxy-2′,7′-dipyridyl-sulfonefluorescein ({Palmitoyl-AEEA-AEEA-AEEA-K(dye2)}-RIGEGTYGVVRR-NH2)”, in the data set on Src, lyn, fyn, the Fold increase came to 6.5x. Further, the “RFUs at 10 uL (final)” value in the data set on Src, lyn, fyn (after kinase) is 6500 RFU. Also, in the data set with Src, lyn, fyn (before kinase), the “RFUs at 10 uL (initial)” value is given as 1000 RFU.
On to “C13-OOOK(dye2)-LRRASLG-NH2: peptide-dye signal molecule for PKA; O = 2-aminoethoxy-2-ethoxyacetyl linker, dye2 = 5-carboxy-2′,7′-dipyridyl-sulfonefluorescein ({Tridecanoyl-AEEA-AEEA-AEEA-K(dye2)}-LRRASLG-NH2)”, for which, in the data set on PKA, the Fold increase is on record as 5x, the “RFUs at 10 uL (final)” value is 5000 RFU and the “RFUs at 10 uL (initial)” value was 1000 RFU.
For “C16-OOOK(dye2)RLNRTLSV-NH2: peptide-dye signal molecule for MAPKAP2; dye2 = 5-carboxy-2′,7′-dipyridyl-sulfonefluorescein ({Palmitoyl-AEEA-AEEA-AEEA-K(dye2)}-RLNRTLSV-NH2)”, in the data set with MAPKAP2, the Fold increase is 4x. Moreover, the “RFUs at 10 uL (final)” value with MAPKAP2 (after kinase) was found to be 3200 RFU. In the data set with MAPKAP2 (before kinase), the “RFUs at 10 uL (initial)” value was determined as 800 RFU.
As to “C17-OOOK(dye2)PRTPGGR-NH2: peptide-dye signal molecule for MAPK; dye2 = 5-carboxy-2′,7′-dipyridyl-sulfonefluorescein ({Heptadecanoyl-AEEA-AEEA-AEEA-K(dye2)}-PRTPGGR-NH2)”, in the data set with MAPK, the Fold increase is reported as 5x. Moreover, the “RFUs at 10 uL (final)” value in the data set with MAPK (after kinase) is on record as 5700 RFU. The “RFUs at 10 uL (initial)” value in the data set on MAPK (before kinase) is 1100 RFU.
As to `C[C@@H](O)[C@H](N)C(=O)O` [Threonine (T), Threonine], the “Side chain pKa” value in data set [1] is “˜13”.
